Measured values taken from patent US12269823B2, “Crystal form of pyridopyrimidine derivative and preparation method thereof” (JIANGSU HENGRUI MEDICINE CO., LTD., priority 2020, dated 2025).

Experiments:
[1] = test system: IL-12 secretion in peripheral blood mononuclear cells (PBMCs); assay: Stimulation of IL-12 secretion in PBMCs; format: cell-based, human; conditions: 24 h incubation
Method: Test example 5. Determination of the ability of the compound disclosed herein to stimulate IL-12 and IFNγ secretion in peripheral blood mononuclear cells (PBMCs) The ability of the compound disclosed herein to stimulate IL-12 and IFNγ secretion in PBMCs was determined by the following procedures:
• 1. RPMI 1640 (Invitrogen, 11875), • 2. FBS (Gibco, 10099-141), • 3. Ficoll-Paque PREMIUM (GE, 17-5442-02), • 4. Trypan blue solution (Sigma, T8154-100ML), • 5. SepMateTM-50 (Stemcell, 15460), • 6. Bright-Line™ cytometer (Sigma, Z359629-1EA), • 7. 96-well flat bottom plate (Corning, 3599), • 8. 96-well v-bottom plate (Corning, 3894), • 9. Human IL-12 ELISA kit (NEOBIOSCIENCE, EHC152.96), • 10. Human IFN γ kit (Cisbio, 62HIFNGPEG), • 11. PHERAStar Multi-Mode Microplate Reader (BMG, PHERAStar). II. Procedures […]
All reagents were equilibrated to room temperature. […] The cells were resuspended in RMPI 1640 culture medium containing 10% FBS, counted and adjusted to 3.33×10^6 cells/mL. […]
The reagents of the Human IL-12 detection kit was equilibrated to room temperature. […] Finally, a terminating solution was added to terminate the reaction, and the plate was detected for the absorbance at 450 nm using a microplate reader. […]
The ability of the compound disclosed herein to stimulate IL-12 and IFNγ secretion in PBMCs was determined by the above test and the MEC values obtained are shown in Table 1-5.

[2] = molecular target: T1, CYP3A4 (testosterone metabolic site) (Homo sapiens, UniProt P08684); assay: Inhibition of testosterone metabolic site on human liver microsome CYP3A4; format: in vitro ADME; conditions: human liver microsomes, testosterone probe
T1 construct: Human liver microsome (Corning Gentest); tissue Corning Gentest; host or cells: human liver microsomes
T1 sequence (P08684 whole entry): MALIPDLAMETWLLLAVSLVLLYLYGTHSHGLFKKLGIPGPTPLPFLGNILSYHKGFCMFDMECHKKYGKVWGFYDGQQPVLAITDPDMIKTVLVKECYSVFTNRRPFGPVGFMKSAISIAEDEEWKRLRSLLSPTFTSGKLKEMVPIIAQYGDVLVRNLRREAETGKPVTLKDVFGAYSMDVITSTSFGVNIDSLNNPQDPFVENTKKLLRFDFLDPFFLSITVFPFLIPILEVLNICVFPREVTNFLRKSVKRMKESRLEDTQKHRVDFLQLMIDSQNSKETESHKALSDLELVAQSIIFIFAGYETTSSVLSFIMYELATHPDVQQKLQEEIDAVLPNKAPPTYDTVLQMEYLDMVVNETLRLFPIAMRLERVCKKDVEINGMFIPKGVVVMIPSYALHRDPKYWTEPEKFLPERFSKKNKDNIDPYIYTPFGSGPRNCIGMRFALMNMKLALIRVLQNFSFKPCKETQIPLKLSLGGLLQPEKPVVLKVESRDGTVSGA
Method: Test example 4. Inhibitory effect of the compound disclosed herein on enzymatic activity of testosterone metabolic site on human liver microsome CYP3A4
The inhibitory effect of the compound disclosed herein on the enzymatic activity of the testosterone metabolic site on human liver microsome CYP3A4 was determined by the following procedures:
• 1. Phosphate buffered saline (PBS), • 2. NADPH (Sigma N-1630), • 3. Human liver microsome (Corning Gentest), • 4. ABI QTrap 4000 LC-MS/MS System (AB Sciex), • 5. Inertsil C8-3 column, 4.6×50 mm, 5 (Dikma, USA), • 6. CYP probe substrate (testosterone/100 μM, SIGMA K1003) and positive control inhibitor (ketoconazole, Dr. Ehrenstorfer GmbH, C17322500). II. Procedures
A 100 mM PBS buffer was prepared and was used to prepare a 2.5 mg/mL microsome solution and a 5 mM NADPH solution. A compound working solution at 5× concentration was serially diluted with PBS (150, 50, 15, 5, 1.5, 0.15, 0.015 and 0 μM). A ketoconazole working solution at 5× concentration was serially diluted with PBS (150, 50, 15, 5, 1.5, 0.15, 0.015 and 0 μM). A dextromethorphan working solution was diluted to 50 μM with PBS. […]
The IC50 values of the drug for testosterone metabolic site on CYP3A4 were calculated by Graphpad Prism and are shown in Table 1-4.

[3] = Stability under long-term and accelerated conditions, 3 months; format: physicochemical
Method: The crystalline form B of the compound of formula (I) was examined for the stability under long-term (25° C., 60% RH) and accelerated (40° C., 75% RH) conditions in a period of 3 months.

[4] = 30-day influencing factor stability test (heating, illumination, high humidity); format: physicochemical
Method: The crystalline form A and crystalline form B of the compound of formula (I) were transferred and let stand in clean open weighing bottles to test the stability under the conditions of heating (40° C., 60° C.), illumination (4500 1×±500 1×) and high humidity (90%±5%, 75%±5%) during an inspection period of 30 days.

Cyp and hERG = conditions: background statement; cited from earlier work
TLR7 = molecular target: T2, TLR7 (Homo sapiens, UniProt Q9NYK1); conditions: background statement; cited from earlier work
T2 sequence (Q9NYK1 27-1049): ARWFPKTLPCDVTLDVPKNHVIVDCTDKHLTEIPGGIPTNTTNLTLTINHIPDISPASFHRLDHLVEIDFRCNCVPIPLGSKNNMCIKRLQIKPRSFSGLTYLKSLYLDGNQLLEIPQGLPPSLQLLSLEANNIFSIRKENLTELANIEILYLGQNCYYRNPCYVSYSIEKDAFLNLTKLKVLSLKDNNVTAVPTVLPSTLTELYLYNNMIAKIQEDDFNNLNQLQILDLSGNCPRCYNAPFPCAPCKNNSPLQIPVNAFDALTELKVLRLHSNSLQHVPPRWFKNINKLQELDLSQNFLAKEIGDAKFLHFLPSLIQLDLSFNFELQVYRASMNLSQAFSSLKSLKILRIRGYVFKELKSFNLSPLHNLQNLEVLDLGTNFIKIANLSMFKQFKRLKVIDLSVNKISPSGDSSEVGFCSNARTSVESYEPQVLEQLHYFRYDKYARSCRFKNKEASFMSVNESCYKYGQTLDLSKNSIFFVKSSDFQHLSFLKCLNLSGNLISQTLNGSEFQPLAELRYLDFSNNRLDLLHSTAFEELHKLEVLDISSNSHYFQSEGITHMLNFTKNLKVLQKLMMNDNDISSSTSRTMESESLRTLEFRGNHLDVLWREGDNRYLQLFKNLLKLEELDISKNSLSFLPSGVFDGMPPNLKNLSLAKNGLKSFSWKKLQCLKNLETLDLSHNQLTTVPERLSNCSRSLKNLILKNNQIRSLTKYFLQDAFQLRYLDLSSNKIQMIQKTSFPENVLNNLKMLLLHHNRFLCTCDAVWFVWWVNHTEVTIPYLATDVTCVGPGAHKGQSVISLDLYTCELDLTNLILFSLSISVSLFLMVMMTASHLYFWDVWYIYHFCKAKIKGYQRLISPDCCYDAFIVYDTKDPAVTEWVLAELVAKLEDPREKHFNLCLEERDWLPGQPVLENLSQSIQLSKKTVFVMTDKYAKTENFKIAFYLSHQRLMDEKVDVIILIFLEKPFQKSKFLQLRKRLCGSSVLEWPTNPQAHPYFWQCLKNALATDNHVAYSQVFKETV

SMILES | Purity ([4]; 40° C., 5 days) [%] | Purity ([4]; 40° C., 10 days) [%] | Purity ([4]; 40° C., 30 days) [%] | Purity ([4]; 60° C., 5 days) [%] | Purity ([4]; 60° C., 10 days) [%] | Purity ([4]; 60° C., 30 days) [%] | Purity ([4]; 4500 lux, 5 days) [%] | Purity ([4]; 4500 lux, 10 days) [%] | Purity ([4]; 4500 lux, 30 days) [%] | Purity ([4]; Initial, 0 days) [%] | Purity ([4]; RH 75%, 5 days) [%] | Purity ([4]; RH 75%, 10 days) [%] | Purity ([4]; RH 75%, 30 days) [%] | Purity ([4]; RH 90%, 5 days) [%] | Purity ([4]; RH 90%, 10 days) [%] | Purity ([4]; RH 90%, 30 days) [%] | Selectivity for Cyp and hERG (in words) (Cyp and hERG) | Activity on TLR7 (in words) (TLR7) | further results
CCCC[C@](C)(CO)Nc1nc(N)nc2cc(-c3ccc(CN4CCN(C)CC4)nc3)cnc12 [Example 1, (R)-2-((2-amino-7-(6-((4-methylpiperazin-1-yl)methyl)pyridin-3-yl)pyrido[3,2-d]pyrimidin-4-yl)amino)-2-methylhexan-1-ol] |  |  |  |  |  |  |  |  |  |  |  |  |  |  |  |  |  |  | IL-12 MEC (minimum effective concentration) [1]: 41 nM; IC50 at 30 min [2]: > 30 µM
CCCC[C@](C)(CO)Nc1nc(N)nc2cc(F)cnc12 [GS-9688] |  |  |  |  |  |  |  |  |  |  |  |  |  |  |  |  | poor selectivity for Cyp and hERG | certain activity on TLR7 | 
CCCN(CCC)C(=O)C1=Cc2ccc(-c3ccc(C(=O)N4CCCC4)cc3)cc2N=C(N)C1 [VTX-2337] |  |  |  |  |  |  |  |  |  |  |  |  |  |  |  |  | poor selectivity for Cyp and hERG | certain activity on TLR7 | 

Second part, led by results:

Purity ([4]; 40° C., 5 days) [%] | Purity ([4]; 40° C., 10 days) [%] | Purity ([4]; 40° C., 30 days) [%] | Purity ([4]; 60° C., 5 days) [%] | Purity ([4]; 60° C., 10 days) [%] | Purity ([4]; 60° C., 30 days) [%] | Purity ([4]; 4500 lux, 5 days) [%] | Purity ([4]; 4500 lux, 10 days) [%] | Purity ([4]; 4500 lux, 30 days) [%] | Purity ([4]; Initial, 0 days) [%] | Purity ([4]; RH 75%, 5 days) [%] | Purity ([4]; RH 75%, 10 days) [%] | Purity ([4]; RH 75%, 30 days) [%] | Purity ([4]; RH 90%, 5 days) [%] | Purity ([4]; RH 90%, 10 days) [%] | Purity ([4]; RH 90%, 30 days) [%] | SMILES | Selectivity for Cyp and hERG (in words) (Cyp and hERG) | Activity on TLR7 (in words) (TLR7) | further results
98.19 | 98.17 | 97.23 | 97.87 | 97.53 | 96.24 | 95.48 | 92.61 | 88.03 | 98.65 | 98.65 | 98.69 | 97.96 | 98.69 | 98.75 | 97.99 | CCCC[C@](C)(CO)Nc1nc(N)nc2cc(-c3ccc(CN4CCN(C)CC4)nc3)cnc12 [crystalline form B] |  |  | Physical and chemical stability (in words) ([3]; 3 months, long-term (25° C., 60% RH) and accelerated (40° C., 75% RH)): good physical and chemical stabilities; Purity ([3]; 25° C., 60% RH, Initial): 99.71%; Purity ([3]; 25° C., 60% RH, Month 1): 99.70%; Purity ([3]; 25° C., 60% RH, Month 2): 99.71%; Purity ([3]; 25° C., 60% RH, Month 3): 99.62%; Purity ([3]; 40° C., 75% RH, Initial): 99.71%; Purity ([3]; 40° C., 75% RH, Month 1): 99.69%; Purity ([3]; 40° C., 75% RH, Month 2): 99.68%; Purity ([3]; 40° C., 75% RH, Month 3): 99.54%
96.98 | 96.98 | 95.47 | 95.87 | 95.72 | 93.74 | 95.82 | 94.99 | 92.51 | 97.83 | 97.83 | 97.85 | 97.47 | 97.91 | 97.84 | 97.53 | CCCC[C@](C)(CO)Nc1nc(N)nc2cc(-c3ccc(CN4CCN(C)CC4)nc3)cnc12 [crystalline form A] |  |  | 
